Legend:
PYD (pyridinoline) = assay: Serum PYD ELISA (bone resorption marker); assay type: in vivo, mouse; settings: 6-MO female 5×FAD mice, compared to WT controls; 50 μg/Kg s.c. intermittent
Method: (§1) Parathyroid hormone (human) was purchased from TOCRIS Bioscience (Cat #3011/1, Abingdon, United Kingdom). WT or 5×FAD mice (both male and female) were treated with PTH1-34 intermittently [once daily injection of hPTH1-34 (50 μg/Kg) or vehicle (0.9% sodium chloride) (as a control) by subcutaneous injection, starting at 2-MO, 5 days per week] as described previously. Mice were then subjected to behavioral tests and sacrificed for examinations of their bone and brain phenotypes at the indicated ages.
Submandibular blood collection was performed in anesthetized mice. A swift lancing motion is used to puncture the vessel. Blood sample (up to 200 μl) was collected with a pipette or other collection tube, allowed to stand at room temperature for 30 min and centrifuged for 15 min at 3000 rpm. Supernatant serum was aliquot and frozen at −80° C. until use. Mouse serum levels of osteocalcin (a marker for bone formation), PYD (pyridinoline, a marker for bone resorption), and PTH were measured using mouse osteocalcin Elisa kit (QUIDEL Corporation), METRA Serum PYD EIA kit (QUIDEL Corporation, San Diego, CA, USA), and mouse PTH Elisa kit (MyBioSource), respectively, following the manufacturers' instruction.

5×FAD mice [1] = assay: Novel object recognition (NOR); assay type: in vivo, mouse
Method: as §1
(§2) Mice (female and male) at the age of ˜5-MO were subjected to behavioral studies. The experimental procedures are described as previously. […] The total arm entries and the number of tri-ads were recorded to quantify the percentage of spontaneous alternation. For novel object recognition (NOR), which tests mouse's memory ability for a novel object, 20 min were recorded to analyze the time to explore the old object vs. the new object of each mouse. […] During test trials, one of the objects was replaced with a new object and mice were free to explore for another 20 min, and the time spent exploring the new object and the old object was recorded. The discrimination index is quantified as the novelty object preference, which is the time spent exploring the new object minus the time exploring the old object over the total exploration time.

5×FAD mice [2] = assay: Y-maze test; assay type: in vivo, mouse; settings: 5×FAD female mice ~5-MO vs Veh-treated 5×FAD female
Method: as §1, §2

GFAP+ astrocytes = assay: Co-immunostaining ThioS/GFAP, reactive astrocytes; assay type: in vivo, mouse
Method: as §1
DAPI was used for nucleus staining.

[3] = tested on: proinflammatory cytokines and chemokines; assay: qRT-PCR of proinflammatory cytokines and chemokines in cortex and hippocampus; assay type: in vivo, mouse; settings: 6-MO 5×FAD female mice
Method: as §1
Total RNA was extracted from cortex, hippocampus, or cultured astrocytes using a TRizol reagent (Invitrogen, cat #15596-026, Carlsbad, CA, USA) as previously described. Purified RNA (1-5 μg) was used for cDNA synthesis with the Revert Aid First Strand cDNA Synthesis Kit (Thermo Scientific, cat #K1621, Waltham, MA, USA). The cDNA products were subjected to subsequent quantitative PCR (qPCR) using the QuantiFast SYBR Green PCR Kit (QIA-GEN, cat #204057, Hilden, Germany) with a qPCR System (StepOne Plus). Each sample was repeated at least 3 times, and the mRNA level was normalized to GAPDH using the 2^−ΔΔCt method.

[4] = tested on: serum inflammatory cytokines; assay: Mouse serum cytokine array; assay type: in vivo
Method: as §1
Serum samples from 5×FAD, Tg2576, and their WT control female mice (6˜MO) were collected and used for serum cytokine detection. Cytokines were measured with Mouse Cytokine Array Panel A (R&D Systems, cat #ARY006, Minneapolis, MN, USA). Briefly, the mixture of serum and the biotinylated detection antibodies cocktail is incubated with a Mouse Cytokine Array membrane. Any cytokine/detection antibody complex present was bound on the membrane by its cognate immobilized capture antibody. After washing off the unbound protein, streptavidin-horseradish peroxidase and chemiluminescent detection reagents were added to generate light signals. The light produced at each spot is proportional to the amount of cytokine binding.

p16Ink4a and p53 = assay: Senescence markers in hippocampus (RT-PCR, Western blot); assay type: in vivo, mouse
Method: as §1
Total proteins from cortex, hippocampus, or cultured astrocytes were extracted using RIPA lysis buffer [50 mM Tris-HCl (pH7.5), 150 mM NaCl, 1 mM EDTA, 1% v/v NP-40, 0.1% SDS, 1% sodium deoxycholate supplemented with Protease Inhibitor Cocktail (Roche) and 1 mM PMSF] and analyzed by Western Blot. Lysates were cleared by centrifugation at 12,000 g for 15 min at 4° C. to remove debris and to obtain homogenates. Homogenates samples were resolved by SDS-PAGE (8˜15%) gels and then electroblotted onto nitrocellulose membranes (Cat #1620112, Bio-Rad Laboratories). […] After washing with TBST 3 times, antibody reactivity was detected by the Enhanced Chemiluminescence (ECL) detection system (Amersham Biosciences). Band density of proteins was normalized in relation to loading control and analyzed using NIH ImageJ software. […]

CC[C@H](C)[C@H](NC(=O)[C@H](CCC(=O)O)NC(=O)[C@H](CO)NC(=O)[C@@H](NC(=O)[C@@H](N)CO)C(C)C)C(=O)N[C@@H](CCC(N)=O)C(=O)N[C@@H](CC(C)C)C(=O)N[C@@H](CCSC)C(=O)N[C@@H](Cc1cnc[nH]1)C(=O)N[C@@H](CC(N)=O)C(=O)N[C@@H](CC(C)C)C(=O)NCC(=O)N[C@@H](CCCCN)C(=O)N[C@@H](Cc1cnc[nH]1)C(=O)N[C@@H](CC(C)C)C(=O)N[C@@H](CC(N)=O)C(=O)N[C@@H](CO)C(=O)N[C@@H](CCSC)C(=O)N[C@@H](CCC(=O)O)C(=O)N[C@@H](CCCN=C(N)N)C(=O)N[C@H](C(=O)N[C@@H](CCC(=O)O)C(=O)N[C@@H](Cc1c[nH]c2ccccc12)C(=O)N[C@@H](CC(C)C)C(=O)N[C@@H](CCCN=C(N)N)C(=O)N[C@@H](CCCCN)C(=O)N[C@@H](CCCCN)C(=O)N[C@@H](CC(C)C)C(=O)N[C@@H](CCC(N)=O)C(=O)N[C@@H](CC(=O)O)C(=O)N[C@H](C(=O)N[C@@H](Cc1cnc[nH]1)C(=O)N[C@@H](CC(N)=O)C(=O)N[C@@H](Cc1ccccc1)C(=O)O)C(C)C)C(C)C [PTH1-34]
serum PYD levels (PYD (pyridinoline)): little to no effect on serum PYD levels in 5×FAD mice
NOR, recognition of the novel object (discrimination index) (5×FAD mice [1]; 5×FAD female mice ~5-MO vs 5×FAD Veh, 50 μg/Kg s.c. intermittent): improved recognition of the novel object
NOR, cognitive function in novel object recognition (5×FAD mice [1]; 5×FAD male mice ~5-MO vs Veh): Little to no improvement
Y maze total arm entries (5×FAD mice [2]): comparable arm entries to those of Veh-treated 5×FAD female mice
inhibition of glial cell activation (GFAP, IBA1), by sex (GFAP+ astrocytes; female and male 5×FAD mice, 6-MO): detectable in both female and male 5×FAD mice
GFAP+ fluorescence intensity (GFAP+ astrocytes; layers of cortex (except layer II/III) and DG region of hippocampus, ~6 MO female 5×FAD vs Veh): lower in PTH1-34 treated 5×FAD mice than that of Veh controls
effect on glial cells (GFAP, IBA1) (GFAP+ astrocytes; wild-type (WT) female mice, 6-MO): little effect
plaque-associated GFAP fluorescence (GFAP+ astrocytes; ~6 MO female 5×FAD cortex and hippocampus vs Veh): diminished
expression of upregulated inflammatory cytokines or chemokines (RT-qPCR) ([3]; cortex and hippocampus): largely brought down to nearly normal levels
expression of GM-CSF, RANKL and OPG (RT-qPCR) ([3]; cortex): unaffected
elevated serum factors (IL-1rα, IL-2, IL-3, IL-4, IL-10, CXCL9, CCL3) ([4]; 6-MO 5×FAD female mice): all reduced
serum inflammation-associated factors IL1β, TNFα, TREM-1, CCL11, CCL5 ([4]; 6-MO 5×FAD female mice): reduced
serum factor CCL4 ([4]; 6-MO 5×FAD female mice (CCL4 decreased in 5×FAD)): restored
p53 protein (Western blot) (p16Ink4a and p53; hippocampus homogenates, 6-MO female 5×FAD mice): reduced
p16Ink4a and p53 transcripts (RT-PCR) (p16Ink4a and p53; hippocampus, 6-MO 5×FAD female mice): great reduction
